The results in this text go back to patent publication US20250122191A1, “COMPOUNDS AS BCL-2 INHIBITORS” (Fochon Biosciences, Ltd, priority 2021, published 2025).

One may read the IC50 as the concentration that gives 50% inhibition.

Each structure is given as a SMILES string.

The first assay relates to Toledo cells. The assay can be described thus: Cell proliferation assay (MTS), Toledo cells. Type of assay: cell-based. The note with it: Homo sapiens, 72 h. The method, then:
MTS testing kit was purchased from Promega (Madison, WI, USA). The RPMI-1640, Fetal bovine serum and Penicillin-Streptomycin were purchased from BI (Biological Industries, Beit Haemek, Israel). Dimethyl sulfoxide (DMSO) was purchased from Sigma (St. Louis., MO, USA). Toledo (ATCC catalog #: CRL-2631) cells were cultured in RPMI-1640 supplemented with Penicillin-Streptomycin and 10% FBS.
To investigate whether a compound is able to inhibit the activity of BCL-2 in cells, a mechanism-based assay using Toledo lines was developed. In this assay, the inhibition of BCL-2 was reflected by the inhibition of cell proliferation of Toledo cells. Cells were plated into 96-well plates at the optimized cell density of 30000 cells/well. Plates were incubated at 37° C., with 5% CO2 for 4 h. Compounds were serially diluted and added to the plates with the final concentrations of 10000, 3333.3, 1111.1, 370.4, 123.5, 41.2, 13.7, 4.6 and 1.5 nM. Plates were incubated at 37° C., with 5% CO2 for 72 h. 20 μl MTS was added into each well and the plates were incubated at 37° C., with 5% CO2 for exactly 2 h. The absorbance was measured by a microplate reader at 490 nm. IC50 was calculated using GraphPad Prism 5.0 software.
For the molecule `CCOc1nc2[nH]cc(F)c2cc1Oc1cc(N2CCC3(CC2)CC(N2CCN(Cc4cc(F)c(OC)c(F)c4)C[C@H]2c2ccccc2C(C)C)C3)ccc1C(=O)NS(=O)(=O)c1cnc(NC[C@H]2CC[C@](C)(O)CC2)c([N+](=O)[O-])c1` [Example 108, 4-(2-((R)-4-(3,5-difluoro-4-methoxybenzyl)-2-(2-isopropylphenyl)piperazin-1-yl)-7-azaspiro[3.5]nonan-7-yl)-2-((6-ethoxy-3-fluoro-1H-pyrrolo[2,3-b]pyridin-5-yl)oxy)-N-((6-((((1r,4r)-4-hydroxy-4-methylcyclohexyl)methyl)amino)-5-nitropyridin-3-yl)sulfonyl)benzamide], the IC50 is 1 nM.

The molecule `COc1nc2[nH]cc(F)c2cc1Oc1cc(N2CCC3(CC2)CC(N2CCN(C(C)=O)C[C@H]2c2ccccc2C(C)C)C3)ccc1C(=O)NS(=O)(=O)c1cnc(NC[C@H]2CC[C@](C)(O)CC2)c([N+](=O)[O-])c1` [Example 146, 4-(2-((R)-4-acetyl-2-(2-isopropylphenyl)piperazin-1-yl)-7-azaspiro[3.5]nonan-7-yl)-2-((3-fluoro-6-methoxy-1H-pyrrolo[2,3-b]pyridin-5-yl)oxy)-N-((6-((((1r,4r)-4-hydroxy-4-methylcyclohexyl)methyl)amino)-5-nitropyridin-3-yl)sulfonyl)benzamide] had an IC50 of 1 nM.

`COc1nc2[nH]cc(F)c2cc1Oc1cc(N2CCC3(CC2)CC(N2CCN(Cc4ccc5c(c4)OCCO5)C[C@H]2c2ccccc2C(C)C)C3)ccc1C(=O)NS(=O)(=O)c1cnc(NC[C@H]2CC[C@](C)(O)CC2)c([N+](=O)[O-])c1` [Example 321, 4-(2-((R)-4-((2,3-dihydrobenzo[b][1,4]dioxin-6-yl)methyl)-2-(2-isopropylphenyl)piperazin-1-yl)-7-azaspiro[3.5]nonan-7-yl)-2-((3-fluoro-6-methoxy-1H-pyrrolo[2,3-b]pyridin-5-yl)oxy)-N-((6-((((1r,4r)-4-hydroxy-4-methylcyclohexyl)methyl)amino)-5-nitropyridin-3-yl)sulfonyl)benzamide]: the IC50 was 1 nM.

In the case of `CC(C)c1ccccc1[C@@H]1CN(Cc2ccc3c(c2)OCCO3)CCN1C1CC2(CCN(c3ccc(C(=O)NS(=O)(=O)c4cnc(NC[C@H]5CC[C@](C)(O)CC5)c([N+](=O)[O-])c4)c(Oc4cnc5[nH]cc(F)c5c4)c3)CC2)C1` [Example 322, 4-(2-((R)-4-((2,3-dihydrobenzo[b][1,4]dioxin-6-yl)methyl)-2-(2-isopropylphenyl)piperazin-1-yl)-7-azaspiro[3.5]nonan-7-yl)-2-((3-fluoro-1H-pyrrolo[2,3-b]pyridin-5-yl)oxy)-N-((6-((((1r,4r)-4-hydroxy-4-methylcyclohexyl)methyl)amino)-5-nitropyridin-3-yl)sulfonyl)benzamide], half-maximal inhibition (IC50) required 1 nM.

A further assay relates to RS4;11-BCL-2 G101V cells. In words: Cell proliferation assay (MTS), RS4;11-BCL-2 G101V engineered cells. The assay is classed as cell-based. Particulars: Homo sapiens, 120 h, read-out: RS4, 11 BCL2-G101V IC50. The text has this:
MTS testing kit was purchased from Promega (Madison, WI, USA). The RPMI-1640, Fetal bovine serum and Penicillin-Streptomycin were purchased from BI (Biological Industries, Beit Haemek, Israel). Puromycin was purchased from Beyotime (shanghai, China). Dimethyl sulfoxide (DMSO) was purchased from Sigma (St. Louis., MO, USA). RS4;11-BCL-2 G101V (Cobioer Lot. #: CBD2021063013P4), RS4;11-BCL-2 D103E (Cobioer Lot. #: CBD2021063013P4), RS4;11-BCL-2 D103Y (Cobioer Lot. #: CBD2022012101P4) and RS4;11-BCL-2 F104L (Cobioer Lot. #: CBD2021063014P4) cells were cultured in RPMI1640 supplemented with 1 ug/mL puromycin, 100 U/mL Penicillin-Streptomycin and 10% FBS.
To investigate whether a compound is able to inhibit the activity of BCL-2 mutation in cells, a mechanism-based assay using engineered cell lines stably overexpressing BCL-2 mutation (RS4;11-BCL-2 G101V, RS4;11-BCL-2 D103E, RS4;11-BCL-2 D103Y, and RS4;11-BCL-2 F104L) was developed. In this assay, the inhibition of BCL-2 mutation was reflected by the inhibition of cell proliferation of engineered RS4;11 cells. Cells were plated into 96-well plates at optimized cell density (RS4;11-BCL-2 G101V: 5000 cells/well; RS4;11-BCL-2 D103E: 7500 cells/well; RS4;11-BCL-2 D103Y: 7500 cells/well; RS4;11-BCL-2 F104L: 5000 cells/well). Plates were incubated at 37° C., with 5% CO2 for 4 h (RS4;11-BCL-2 G101V, RS4;11-BCL-2 F104L) and 24 h (RS4;11-BCL-2 D103E, RS4;11-BCL-2 D103Y), respectively. Compounds were serially diluted and added to the plates with the final concentrations of 10000, 3333.3, 1111.1, 370.4, 123.5, 41.2, 13.7, 4.6 and 1.5 nM. Plates were incubated at 37° C., with 5% CO2 for 120 h (RS4; 11-BCL-2 G101V, RS4; 11-BCL-2 F104L) and 72 h (RS4;11-BCL-2 D103E, RS4;11-BCL-2 D103Y), respectively. 20 μl MTS was added into each well and the plates were incubated at 37° C., with 5% CO2 exactly for 2 h. The absorbance was measured by a microplate reader at 490 nm. IC50 values were calculated using GraphPad Prism 8.0 software.
With `COc1nc2[nH]cc(F)c2cc1Oc1cc(N2CCC3(CC2)CC(N2CCN(C)C[C@H]2c2ccccc2C(C)C)C3)ccc1C(=O)NS(=O)(=O)c1cnc(NC[C@H]2CC[C@](C)(O)CC2)c([N+](=O)[O-])c1` [Example 137, 2-((3-fluoro-6-methoxy-1H-pyrrolo[2,3-b]pyridin-5-yl)oxy)-N-((6-((((1r,4r)-4-hydroxy-4-methylcyclohexyl)methyl)amino)-5-nitropyridin-3-yl)sulfonyl)-4-(2-((R)-2-(2-isopropylphenyl)-4-methylpiperazin-1-yl)-7-azaspiro[3.5]nonan-7-yl)benzamide], the IC50 stood at 1 nM.

As to `CC(C)c1ccccc1[C@@H]1CN(C2COC2)CCN1C1CC2(CCN(c3ccc(C(=O)NS(=O)(=O)c4cnc(NC[C@H]5CC[C@](C)(O)CC5)c([N+](=O)[O-])c4)c(Oc4cnc5[nH]cc(F)c5c4)c3)CC2)C1` [Example 205, 2-((3-fluoro-1H-pyrrolo[2,3-b]pyridin-5-yl)oxy)-N-((6-((((1r,4r)-4-hydroxy-4-methylcyclohexyl)methyl)amino)-5-nitropyridin-3-yl)sulfonyl)-4-(2-((R)-2-(2-isopropylphenyl)-4-(oxetan-3-yl)piperazin-1-yl)-7-azaspiro[3.5]nonan-7-yl)benzamide], the IC50 stood at 1 nM.

For `CCOc1nc2[nH]cc(F)c2cc1Oc1cc(N2CCC3(CC2)CC(N2CCN(Cc4ccc(OC)cc4F)C[C@H]2c2ccccc2C(C)C)C3)ccc1C(=O)NS(=O)(=O)c1cnc(NC[C@H]2CC[C@](C)(O)CC2)c([N+](=O)[O-])c1` [Example 106, 2-((6-ethoxy-3-fluoro-1H-pyrrolo[2,3-b]pyridin-5-yl)oxy)-4-(2-((R)-4-(2-fluoro-4-methoxybenzyl)-2-(2-isopropylphenyl)piperazin-1-yl)-7-azaspiro[3.5]nonan-7-yl)-N-((6-((((1r,4r)-4-hydroxy-4-methylcyclohexyl)methyl)amino)-5-nitropyridin-3-yl)sulfonyl)benzamide], the IC50 was 1 nM.

As to `COc1ccc(CN2CCN(C3CC4(CCN(c5ccc(C(=O)NS(=O)(=O)c6cnc(NC[C@H]7CC[C@](C)(O)CC7)c([N+](=O)[O-])c6)c(Oc6cnc7[nH]cc(F)c7c6)c5)CC4)C3)[C@H](c3ccccc3C(C)C)C2)nc1` [Example 256, 2-((3-fluoro-1H-pyrrolo[2,3-b]pyridin-5-yl)oxy)-N-((6-((((1r,4r)-4-hydroxy-4-methylcyclohexyl)methyl)amino)-5-nitropyridin-3-yl)sulfonyl)-4-(2-((R)-2-(2-isopropylphenyl)-4-((5-methoxypyridin-2-yl)methyl)piperazin-1-yl)-7-azaspiro[3.5]nonan-7-yl)benzamide], the IC50 was found to be 1 nM.

Consider `CCOc1nc2[nH]cc(F)c2cc1Oc1cc(N2CCC3(CC2)CC(N2CCN(Cc4ccc(OC)c5oc(C)nc45)C[C@H]2c2ccccc2C(C)C)C3)ccc1C(=O)NS(=O)(=O)c1cnc(NC[C@H]2CC[C@](C)(O)CC2)c([N+](=O)[O-])c1` [Example 246, 2-((6-ethoxy-3-fluoro-1H-pyrrolo[2,3-b]pyridin-5-yl)oxy)-N-((6-((((1r,4r)-4-hydroxy-4-methylcyclohexyl)methyl)amino)-5-nitropyridin-3-yl)sulfonyl)-4-(2-((R)-2-(2-isopropylphenyl)-4-((7-methoxy-2-methylbenzo[d]oxazol-4-yl)methyl)piperazin-1-yl)-7-azaspiro[3.5]nonan-7-yl)benzamide], for which the IC50 amounted to 2 nM.

Regarding `COc1nc2[nH]cc(F)c2cc1Oc1cc(N2CCC3(CC2)CC(N2CCN(C4CCOCC4)C[C@H]2c2ccccc2C(C)C)C3)ccc1C(=O)NS(=O)(=O)c1cnc(NC[C@H]2CC[C@](C)(O)CC2)c([N+](=O)[O-])c1` [Example 319, 2-((3-fluoro-6-methoxy-1H-pyrrolo[2,3-b]pyridin-5-yl)oxy)-N-((6-((((1r,4r)-4-hydroxy-4-methylcyclohexyl)methyl)amino)-5-nitropyridin-3-yl)sulfonyl)-4-(2-((R)-2-(2-isopropylphenyl)-4-(tetrahydro-2H-pyran-4-yl)piperazin-1-yl)-7-azaspiro[3.5]nonan-7-yl)benzamide], the IC50 is 1 nM.

On to `COc1nc2[nH]cc(F)c2cc1Oc1cc(N2CCC3(CC2)CC(N2CCN(Cc4ccnc(N)c4)C[C@H]2c2ccccc2C(C)C)C3)ccc1C(=O)NS(=O)(=O)c1cnc(NC[C@H]2CC[C@](C)(O)CC2)c([N+](=O)[O-])c1` [Example 70, 4-(2-((R)-4-((2-aminopyridin-4-yl)methyl)-2-(2-isopropylphenyl)piperazin-1-yl)-7-azaspiro[3.5]nonan-7-yl)-2-((3-fluoro-6-methoxy-1H-pyrrolo[2,3-b]pyridin-5-yl)oxy)-N-((6-((((1r,4r)-4-hydroxy-4-methylcyclohexyl)methyl)amino)-5-nitropyridin-3-yl)sulfonyl)benzamide], for which the IC50 was 1 nM.
